The record followed here is ChEMBL document CHEMBL4828736, “Discovery of ASTX029, A Clinical Candidate Which Modulates the Phosphorylation and Catalytic Activity of ERK1/2” (J Med Chem, 2021).

In general, half-life refers to how long it takes for the measured level to halve. For orientation: Vd means the apparent volume that relates the amount in the body to the concentration in plasma or blood. As a reminder, the AUC is concentration integrated over time. Low values mean low exposure, high ones high exposure. By bioavailability is commonly meant dose-corrected exposure relative to a reference, in per cent. A high value points to much systemic uptake. One may read the IC50 as the point on the concentration scale where inhibition reaches its midpoint. Low values mean greater potency in that assay, high ones weaker potency in that assay. Usually clearance stands for a measure of how efficiently the substance is removed, as volume per time. A higher clearance goes with efficient removal. The term chromatographic logD denotes a lipophilicity value derived from retention on a column.

For one data set, the target named is CYP3A4 (Homo sapiens, UniProt P08684). The experiment in a line: in vitro. Particulars: recombinant enzyme.
The nature of data set [1]: in vivo. Particulars: BALB/c, mouse, iv, 0.5 mg/kg.
Data set [2] is described as follows: in vivo. Particulars: BALB/c, mouse, po, 5 mg/kg.
Data set [3] can be described thus: in vivo. Conditions: BALB/c, mouse, po, 5 mg/kg. The source holds these as a separate data set.
The nature of data set [4]: in vitro. Conditions: human, microsomes.
The nature of data set [5]: in vitro. Particulars: CD1, mouse, microsomes.
Data set [6] in a line: in vivo. Conditions: BALB/c, mouse, po, 5 mg/kg. This is another data set of the same source.
A further data set concerns COLO 205. Kind of data set: cells. The format is functional, cell-based. Conditions: Homo sapiens, COLO 205, 96 h.
Data set [7] in a line: in vivo. Conditions: BALB/c, mouse, iv, 0.5 mg/kg. The source holds these as a separate data set.
The nature of the next data set: physchem. Conditions: buffer, pH 7.4.

Bounds are passed on as bounds.

CYP3A4, sequence (P08684 whole entry): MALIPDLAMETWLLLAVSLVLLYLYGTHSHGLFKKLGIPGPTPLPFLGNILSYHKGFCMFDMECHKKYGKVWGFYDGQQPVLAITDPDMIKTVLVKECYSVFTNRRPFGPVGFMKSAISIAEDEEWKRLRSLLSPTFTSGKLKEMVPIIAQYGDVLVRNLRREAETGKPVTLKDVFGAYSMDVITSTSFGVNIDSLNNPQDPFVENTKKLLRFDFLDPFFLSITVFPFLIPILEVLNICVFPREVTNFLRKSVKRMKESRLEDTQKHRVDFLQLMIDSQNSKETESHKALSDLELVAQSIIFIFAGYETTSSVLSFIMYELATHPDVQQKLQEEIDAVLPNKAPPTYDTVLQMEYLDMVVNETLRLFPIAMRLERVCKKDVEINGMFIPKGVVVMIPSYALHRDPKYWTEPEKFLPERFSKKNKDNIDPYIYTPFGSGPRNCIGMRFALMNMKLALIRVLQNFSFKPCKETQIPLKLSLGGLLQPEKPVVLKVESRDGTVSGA

In the case of `COc1cc(F)cc([C@@H](CO)NC(=O)[C@@H](C)N2Cc3ccc(-c4nc(Nc5ccnn5C)ncc4Cl)cc3C2=O)c1`, the figures for the half-life at 40 min, 1 µM on CYP3A4, in the data set “in vitro [4]” and in “in vitro [5]” were 13 min, 23 min and 35 min, respectively. This compound also displayed a volume of distribution (Vd) at 24 h in the data set “in vivo [1]” of 0.52 L/kg. In the data set “in vivo [2]”, this compound registered an area under the curve (AUC) at 24 h of 824 ng·h/mL. For the same compound, in the data set “in vivo [3]”, the bioavailability at 24 h amounted to 13%. In the data set “in vivo [6]”, this compound gave a half-life at 24 h of 66 min. This compound also had an IC50 in the data set with COLO 205 of 10 nM. Besides, the clearance at 24 h in “in vivo [7]” is 13 mL/min/kg. For the same compound, the chromatographic logD in “physchem” was found to be 3.3.

On to `C[C@H](C(=O)N[C@H](CO)c1cccc(N2CCN(C)CC2)n1)N1Cc2ccc(-c3nc(NC4CCOCC4)ncc3Cl)cc2C1=O`, for which the half-life at 40 min, 1 µM at CYP3A4 came to 17 min; in the data set “in vitro [4]”, 36 min; in the data set “in vitro [5]”, 120 min. The compound also displayed a volume of distribution (Vd) at 24 h in the data set “in vivo [1]” of 0.76 L/kg. The AUC at 24 h in the data set “in vivo [2]” worked out at 1300 ng·h/mL. Also, in the data set “in vivo [3]”, the bioavailability at 24 h is 15%. The compound also had a half-life at 24 h in the data set “in vivo [6]” of 60 min. The compound also yielded a clearance at 24 h in “in vivo [7]” of 8.7 mL/min/kg. Besides, in the data set “physchem”, the chromatographic logD amounted to 3.3.

With `COc1cc(F)cc([C@@H](CO)NC(=O)[C@@H](C)N2Cc3ccc(-c4nc(Nc5cnn(C)n5)ncc4Cl)cc3C2=O)c1`, the half-life at 40 min, 1 µM at CYP3A4 worked out at 19 min; in “in vitro [4]” it was 26 min; in “in vitro [5]”, 26 min. Further, in “in vivo [1]”, the volume of distribution (Vd) at 24 h is 0.46 L/kg. This compound also returned an AUC at 24 h in “in vivo [2]” of 6400 ng·h/mL. Moreover, in the data set “in vivo [3]”, the bioavailability at 24 h came to 64%. In “in vivo [6]”, this compound had a half-life at 24 h of 90 min. It took 15 nM to reach half-maximal inhibition in the data set with COLO 205 (IC50). In the data set “in vivo [7]”, this compound came in with a clearance at 24 h of 8.3 mL/min/kg. In the data set “physchem”, this compound had a chromatographic logD of 3.7.

Consider `COc1cc([C@@H](CO)NC(=O)[C@@H](C)N2Cc3ccc(-c4nc(NC5CCOCC5)ncc4Cl)cc3C2=O)ccn1`, for which the Vd at 24 h in “in vivo [1]” worked out at 0.26 L/kg. The compound further came in with an AUC at 24 h in the data set “in vivo [2]” of 2400 ng·h/mL. In addition, the bioavailability at 24 h in “in vivo [3]” was found to be 20%. Also, the half-life at 40 min, 1 µM in “in vitro [4]” was determined as 33 min; in the data set “in vitro [5]”, 120 min. In the data set “in vivo [6]”, this compound showed a half-life at 24 h of 90 min. Moreover, the clearance at 24 h in “in vivo [7]” is 6.8 mL/min/kg. Moreover, the chromatographic logD in “physchem” came to 3.

Turning to `C[C@H](C(=O)N[C@H](CO)c1cc(F)cc(N2CCN(C)CC2)c1)N1Cc2ccc(-c3nc(NC4CCOCC4)ncc3Cl)cc2C1=O`, the Vd at 24 h in “in vivo [1]” was 3.8 L/kg. The AUC at 24 h in the data set “in vivo [2]” is 18 ng·h/mL. In “in vitro [4]”, this compound had a half-life at 40 min, 1 µM of 51 min. Moreover, the clearance at 24 h in the data set “in vivo [7]” was determined as 124 mL/min/kg. In “physchem”, the chromatographic logD stood at 3.6.

Consider `COc1cccc([C@@H](CO)NC(=O)[C@@H](C)N2Cc3ccc(-c4nc(NC5CCOCC5)ncc4Cl)cc3C2=O)c1`, for which the half-life at 40 min, 1 µM in the data set “in vitro [4]” is 27 min; in “in vitro [5]” it was 100 min.

As to `COc1cc(F)cc([C@@H](CO)NC(=O)CN2C(=O)c3cc(-c4nc(NC5CCOCC5)ncc4Cl)ccc3[C@H]2C)c1`, the figures for the half-life at 40 min, 1 µM at CYP3A4 and in the data set “in vitro [4]” were 7.3 min and 22 min, respectively.

Regarding `COc1cc(F)cc([C@@H](CO)NC(=O)[C@@H](C)N2Cc3ccc(-c4nc(Nc5ccnc(OC)c5)ncc4Cl)cc3C2=O)c1`, the half-life at 40 min, 1 µM was determined as 27 min on CYP3A4, 25 min in “in vitro [4]” and 31 min in “in vitro [5]”. In addition, in the data set “in vivo [1]”, the Vd at 24 h is 0.56 L/kg. In addition, in the data set “in vivo [2]”, the area under the curve (AUC) at 24 h was found to be 4100 ng·h/mL. The same compound registered a bioavailability at 24 h in “in vivo [3]” of 23%. The compound further had a half-life at 24 h in the data set “in vivo [6]” of 60 min. Moreover, the clearance at 24 h in the data set “in vivo [7]” was found to be 4.6 mL/min/kg. In the data set “physchem”, this compound had a chromatographic logD of 4.2.

`COc1cc(F)cc([C@@H](CO)NC(=O)[C@@H](C)N2Cc3ccc(-c4ccnc(NC5CCOCC5)n4)cc3C2=O)c1`: the half-life at 40 min, 1 µM on CYP3A4 was found to be 49 min; in the data set “in vitro [4]”, 62 min. Also, the Vd at 24 h in the data set “in vivo [1]” is 1 L/kg. The compound also came in with an AUC at 24 h in the data set “in vivo [2]” of 320 ng·h/mL. Also, in “in vivo [3]”, the bioavailability at 24 h stood at 7%. For the same compound, in the data set “in vivo [6]”, the half-life at 24 h was 72 min. Moreover, in the data set with COLO 205, the IC50 stood at 15 nM. Besides, the clearance at 24 h in “in vivo [7]” was determined as 17 mL/min/kg. Moreover, the chromatographic logD in the data set “physchem” was 3.2.

As for `O=C(CN1Cc2ccc(-c3nc(NC4CCOCC4)ncc3Cl)cc2C1=O)N1CCc2ccccc2CC1`, the half-life at 40 min, 1 µM at CYP3A4 was determined as 28 min; in the data set “in vitro [4]”, 17 min; in the data set “in vitro [5]”, 28 min. Moreover, the Vd at 24 h in the data set “in vivo [1]” came out at 0.45 L/kg. Also, in “in vivo [2]”, the AUC at 24 h was 440 ng·h/mL. The same compound registered a bioavailability at 24 h in “in vivo [3]” of 10%. Besides, the half-life at 24 h in “in vivo [6]” is 84 min. In the data set “in vivo [7]”, this compound gave a clearance at 24 h of 19 mL/min/kg. Moreover, the chromatographic logD in “physchem” amounted to 4.7.

Take `O=C(CN1Cc2ccc(-c3nc(NC4CCOCC4)ncc3Cl)cc2C1=O)N1CCCc2ccccc2C1`: the half-life at 40 min, 1 µM in the data set “in vitro [4]” and in “in vitro [5]” was below 5 min throughout.

In turn, `O=C(CN1Cc2ccc(-c3nc(NC4CCOCC4)ncc3Cl)cc2C1=O)N[C@@]1(CO)CCc2ccccc21` had a volume of distribution (Vd) at 24 h in the data set “in vivo [1]” of 0.91 L/kg. The compound also showed an AUC at 24 h in the data set “in vivo [2]” of 960 ng·h/mL. Further, the bioavailability at 24 h in the data set “in vivo [3]” worked out at 40%. The half-life at 40 min, 1 µM in “in vitro [4]” was 10 min; in the data set “in vitro [5]” it was 20 min. For the same compound, the half-life at 24 h in “in vivo [6]” is 53.4 min. This compound yielded a clearance at 24 h in “in vivo [7]” of 35 mL/min/kg. In “physchem”, the chromatographic logD stood at 3.6.

Turning to `COc1cc(F)cc([C@@H](CO)NC(=O)[C@@H](C)N2Cc3ncc(-c4nc(NC5CCOCC5)ncc4Cl)cc3C2=O)c1`, the half-life at 40 min, 1 µM at CYP3A4 amounted to 23 min; in the data set “in vitro [4]”, 36 min. The compound also returned a distribution volume (Vd) at 24 h in the data set “in vivo [1]” of 1.9 L/kg. This compound displayed an AUC at 24 h in the data set “in vivo [2]” of 500 ng·h/mL. Moreover, the bioavailability at 24 h in “in vivo [3]” amounted to 23%. Moreover, the half-life at 24 h in “in vivo [6]” was 114 min. In the data set with COLO 205, half-maximal inhibition (IC50) was put at 8 nM. The same compound came in with a clearance at 24 h in “in vivo [7]” of 37 mL/min/kg. In addition, the chromatographic logD in the data set “physchem” came to 3.2.

As for `Cc1cccc([C@@H](CO)NC(=O)[C@@H](C)N2Cc3ccc(-c4nc(NC5CCOCC5)ncc4Cl)cc3C2=O)c1`, the half-life at 40 min, 1 µM was found to be 12 min in the data set “in vitro [4]” and 31 min in the data set “in vitro [5]”. Besides, in “physchem”, the chromatographic logD was found to be 3.9.

In the case of `COc1cc(F)cc([C@@H](CO)NC(=O)[C@@H](C)N2Cc3ccc(-c4nc(N[C@@H](C)CO)ncc4Cl)cc3C2=O)c1`, the half-life at 40 min, 1 µM on CYP3A4 was determined as 29 min; in the data set “in vitro [4]” it was 28 min. In the data set “in vivo [1]”, this compound displayed a Vd at 24 h of 1.4 L/kg. For the same compound, in “in vivo [2]”, the exposure (AUC) at 24 h worked out at 310 ng·h/mL. This compound also showed a bioavailability at 24 h in the data set “in vivo [3]” of 9%. In the data set “in vivo [6]”, this compound gave a half-life at 24 h of 108 min. The clearance at 24 h in the data set “in vivo [7]” turned out to be 23 mL/min/kg. Besides, the chromatographic logD in “physchem” was 3.1.

In the data set “in vivo [1]”, `Cc1cccc([C@@H](CO)NC(=O)CN2Cc3ccc(-c4nc(NC5CCOCC5)ncc4Cl)cc3C2=O)c1` showed a Vd at 24 h of 0.55 L/kg. Besides, the AUC at 24 h in “in vivo [2]” is 3000 ng·h/mL. The bioavailability at 24 h in “in vivo [3]” turned out to be 41%. For the same compound, the half-life at 40 min, 1 µM was found to be 40 min in the data set “in vitro [4]” and 65 min in “in vitro [5]”. The half-life at 24 h in the data set “in vivo [6]” is 150 min. Moreover, in the data set “in vivo [7]”, the clearance at 24 h was determined as 11 mL/min/kg. The compound further came in with a chromatographic logD in “physchem” of 3.

For the compound `C[C@H](C(=O)N[C@H](CO)c1cc(F)cc(F)c1)N1Cc2ccc(-c3nc(NC4CCOCC4)ncc3Cl)cc2C1=O`, the half-life at 40 min, 1 µM on CYP3A4 was below 5 min; in “in vitro [4]”, 23 min; in “in vitro [5]” it was 49 min.

On to `C[C@H](C(=O)N[C@H](CO)c1cc(F)cc(OCCN(C)C)c1)N1Cc2ccc(-c3nc(NC4CCOCC4)ncc3Cl)cc2C1=O`, for which the values for the half-life at 40 min, 1 µM at CYP3A4 and in the data set “in vitro [4]” were 10 min and 60 min, respectively.

As for `O=C(CN1Cc2ccc(-c3nc(NC4CCOCC4)ncc3Cl)cc2C1=O)NCc1ccccc1`, the half-life at 40 min, 1 µM was 32 min in “in vitro [4]” and 65 min in the data set “in vitro [5]”.
